The values that follow come from PubChem BioAssay (NCI).

Test systems include RXF 393 renal; NCI/ADR-RES ovarian; 786-0 renal; OVCAR-4 ovarian; DU-145 prostate; PC-3 prostate; SK-OV-3 ovarian; UO-31 renal; OVCAR-5 ovarian; SK-MEL-2 melanoma; K-562 leukemia; M14 melanoma; UACC-62 melanoma; KM12 colon; LOX IMVI melanoma; UACC-257 melanoma; SN12C renal; BT-549 breast; HOP-62 NSCLC; SF-295 CNS.
Common to all, as to assay: NCI-60 cell line screen, 48 h

Molecules are shown by their SMILES.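 Growth conditions: 96-well plates. Treatment: test compound, 48 hours, 5 concentrations. Analysis: linear interpolation between bracketing concentrations; unreached endpoints set to highest concentration. Definition used: TGI = concentration required for complete inhibition of growth.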

In the case of `CSc1c(C(C)=O)c(O)n(-c2ccc(C)cc2)c(=O)c1C#N`, the TGI with RXF 393 renal, in the experiment with NCI/ADR-RES ovarian, in the experiment on 786-0 renal, in the experiment on OVCAR-4 ovarian, in the experiment on DU-145 prostate and in the experiment with PC-3 prostate was more than 100 µM in each case. Moreover, the TGI in the experiment with SK-OV-3 ovarian, with UO-31 renal, in the experiment with OVCAR-5 ovarian, with SK-MEL-2 melanoma, with K-562 leukemia and with M14 melanoma was more than 100 µM throughout. For the same compound, the TGI with UACC-62 melanoma, with KM12 colon, in the experiment on LOX IMVI melanoma, in the experiment with UACC-257 melanoma, in the experiment with SN12C renal and with BT-549 breast was more than 100 µM each time.

For `O=C(/C=C/c1ccc(OCc2ccccc2)cc1)NCc1ccc(C(=O)NCCc2ccccc2)cc1`, the TGI with HOP-62 NSCLC, in the experiment with RXF 393 renal, in the experiment with NCI/ADR-RES ovarian, in the experiment on 786-0 renal, in the experiment on OVCAR-4 ovarian and in the experiment with SF-295 CNS was more than 100 µM in each case. Also, the TGI with DU-145 prostate, in the experiment on PC-3 prostate, in the experiment on SK-OV-3 ovarian, in the experiment on UO-31 renal, in the experiment with OVCAR-5 ovarian and in the experiment with SK-MEL-2 melanoma was more than 100 µM throughout. Further, the TGI in the experiment with M14 melanoma, in the experiment on UACC-62 melanoma, with KM12 colon, with LOX IMVI melanoma, in the experiment with UACC-257 melanoma and in the experiment with SN12C renal was more than 100 µM in each case. This compound also had a TGI in the experiment on BT-549 breast of more than 100 µM.

Consider `NC(CCC(=O)c1ccccn1)C(=O)O` (configuration not stated), for which the TGI in the experiment on HOP-62 NSCLC, in the experiment with RXF 393 renal, in the experiment on NCI/ADR-RES ovarian, in the experiment with 786-0 renal, in the experiment with OVCAR-4 ovarian and in the experiment on SF-295 CNS was more than 100 µM throughout. The TGI with DU-145 prostate, with PC-3 prostate, with SK-OV-3 ovarian, in the experiment on UO-31 renal, in the experiment on OVCAR-5 ovarian and with SK-MEL-2 melanoma was more than 100 µM each time. The TGI in the experiment with M14 melanoma, in the experiment with UACC-62 melanoma, in the experiment on KM12 colon, with LOX IMVI melanoma, in the experiment on UACC-257 melanoma and in the experiment with SN12C renal was more than 100 µM throughout. The compound also returned a TGI with BT-549 breast of more than 100 µM.

Turning to `CC(=O)Oc1ccc2cc(Oc3cc(Cl)c(Cl)cc3Cl)c(=O)oc2c1`, the TGI was 36.2 µM in the experiment on HOP-62 NSCLC; 31.5 µM with RXF 393 renal; 29 µM in the experiment on 786-0 renal; more than 100 µM with OVCAR-4 ovarian; 45.7 µM in the experiment with SF-295 CNS; more than 100 µM in the experiment on DU-145 prostate. Also, the TGI is 33 µM in the experiment with PC-3 prostate; 25.9 µM in the experiment with UO-31 renal; 71.2 µM in the experiment on OVCAR-5 ovarian; 25.9 µM in the experiment on K-562 leukemia; 35.2 µM in the experiment on M14 melanoma; 25.6 µM with KM12 colon. Besides, the TGI in the experiment with LOX IMVI melanoma was determined as 28.9 µM; with UACC-257 melanoma it was 50.6 µM; in the experiment with SN12C renal, 28.1 µM; in the experiment with BT-549 breast, 26.7 µM.

For the compound `NC(=S)NNCC(=O)CC(O)(C(F)(F)F)C(F)(F)Cl` (configuration not stated), the TGI in the experiment with RXF 393 renal, in the experiment on NCI/ADR-RES ovarian, with 786-0 renal, with OVCAR-4 ovarian, in the experiment on SF-295 CNS and in the experiment on DU-145 prostate was more than 100 µM throughout. Also, the TGI in the experiment on PC-3 prostate, in the experiment on SK-OV-3 ovarian, with UO-31 renal, with OVCAR-5 ovarian, in the experiment with SK-MEL-2 melanoma and in the experiment on K-562 leukemia was more than 100 µM in each case. Also, the TGI with M14 melanoma, in the experiment on UACC-62 melanoma, in the experiment on KM12 colon, in the experiment with LOX IMVI melanoma, in the experiment with UACC-257 melanoma and in the experiment with BT-549 breast was more than 100 µM each time.

For the compound `C[C@]12CC[C@H]3[C@@H](CC=C4C[C@@H](O)CC[C@@]43C)[C@@H]1C/C(=C\c1cccnc1)[C@@H]2O`, the TGI was 29.4 µM in the experiment with HOP-62 NSCLC; 80.2 µM with RXF 393 renal; more than 100 µM in the experiment on NCI/ADR-RES ovarian; 96 µM in the experiment with 786-0 renal; 58.9 µM in the experiment on OVCAR-4 ovarian; 17.2 µM in the experiment with SF-295 CNS. The TGI with DU-145 prostate was 67.4 µM; in the experiment on PC-3 prostate, more than 100 µM; in the experiment with SK-OV-3 ovarian, 34.2 µM; in the experiment on UO-31 renal it was more than 100 µM; with OVCAR-5 ovarian, more than 100 µM; with SK-MEL-2 melanoma, more than 100 µM. Besides, the TGI is more than 100 µM in the experiment with M14 melanoma; 39.8 µM in the experiment with UACC-62 melanoma; more than 100 µM in the experiment on KM12 colon; 4.46 µM with LOX IMVI melanoma; more than 100 µM in the experiment on UACC-257 melanoma; 55.2 µM in the experiment on SN12C renal. The compound also came in with a TGI with BT-549 breast of 48.9 µM.

On to `S=c1ncc(-c2cncc(-c3cnc(=S)[nH]c3)n2)c[nH]1`, for which the TGI in the experiment on RXF 393 renal, in the experiment on NCI/ADR-RES ovarian, in the experiment with 786-0 renal, in the experiment on OVCAR-4 ovarian, in the experiment with SF-295 CNS and with DU-145 prostate was more than 100 µM in each case. Further, the TGI in the experiment with PC-3 prostate, in the experiment on SK-OV-3 ovarian, with UO-31 renal, in the experiment on OVCAR-5 ovarian, with SK-MEL-2 melanoma and in the experiment on K-562 leukemia was more than 100 µM each time. In addition, the TGI in the experiment on M14 melanoma, in the experiment on UACC-62 melanoma, in the experiment on KM12 colon, in the experiment with UACC-257 melanoma, in the experiment on SN12C renal and with BT-549 breast was more than 100 µM each time.

On to `CCOc1ccc2nc(NC(=O)C(=O)C3C(=O)C(CC4C(=O)c5ccccc5C4=O)C(=O)CC3(C)C)sc2c1` (configuration not stated), for which the TGI with HOP-62 NSCLC, in the experiment on RXF 393 renal, with NCI/ADR-RES ovarian, in the experiment with 786-0 renal, with OVCAR-4 ovarian and in the experiment on SF-295 CNS was more than 100 µM in each case. The TGI in the experiment with DU-145 prostate, in the experiment with PC-3 prostate, with SK-OV-3 ovarian, in the experiment with UO-31 renal, with OVCAR-5 ovarian and with SK-MEL-2 melanoma was more than 100 µM in each case. In addition, the TGI in the experiment on M14 melanoma, with UACC-62 melanoma, with KM12 colon, in the experiment on LOX IMVI melanoma, with UACC-257 melanoma and in the experiment on SN12C renal was more than 100 µM in each case. In the experiment with BT-549 breast, the TGI was more than 100 µM.

`CC(=O)OC1CCn2c1nc1cc([N+](=O)[O-])c(C)cc12` (configuration not stated): the TGI with RXF 393 renal, with NCI/ADR-RES ovarian, in the experiment with 786-0 renal, in the experiment with OVCAR-4 ovarian, in the experiment with SF-295 CNS and in the experiment on DU-145 prostate was more than 100 µM in each case. The TGI in the experiment with PC-3 prostate, in the experiment on SK-OV-3 ovarian, in the experiment with UO-31 renal, in the experiment on SK-MEL-2 melanoma, in the experiment with K-562 leukemia and in the experiment with M14 melanoma was more than 100 µM throughout. Besides, the TGI in the experiment with UACC-62 melanoma, in the experiment with KM12 colon, with LOX IMVI melanoma, in the experiment with UACC-257 melanoma, in the experiment on SN12C renal and in the experiment on BT-549 breast was more than 100 µM each time.

With `OCCc1ccsc1-c1sc(-c2cc(CCO)c(-c3sc(-c4cc(CCO)c(-c5sccc5CCO)s4)cc3CCO)s2)cc1CCO`, the TGI was determined as 2.76 µM with HOP-62 NSCLC; 1.21 µM with RXF 393 renal; 4.14 µM with NCI/ADR-RES ovarian; 2.14 µM in the experiment with 786-0 renal; 2.52 µM in the experiment on OVCAR-4 ovarian; 2.7 µM in the experiment on SF-295 CNS. For the same compound, the TGI with DU-145 prostate was 4.53 µM; in the experiment with PC-3 prostate, 2.67 µM; with SK-OV-3 ovarian it was 3.11 µM; with UO-31 renal, 2.7 µM; in the experiment with OVCAR-5 ovarian, 2.85 µM; in the experiment with SK-MEL-2 melanoma, 3.35 µM. For the same compound, the TGI was 3.36 µM with M14 melanoma; 3.41 µM in the experiment on UACC-62 melanoma; 1.9 µM in the experiment with KM12 colon; 2.47 µM with LOX IMVI melanoma; 2.9 µM in the experiment with UACC-257 melanoma; 2.21 µM in the experiment with BT-549 breast.

In the case of `COc1cc2c(c(OC)c1OC)C(=O)c1c(O)cc(C)c(OC)c1C2=O`, the TGI with HOP-62 NSCLC, in the experiment with NCI/ADR-RES ovarian, in the experiment on 786-0 renal, in the experiment with OVCAR-4 ovarian, with SF-295 CNS and with DU-145 prostate was more than 100 µM in each case. The TGI in the experiment on PC-3 prostate, with UO-31 renal, in the experiment on OVCAR-5 ovarian, in the experiment on SK-MEL-2 melanoma, with M14 melanoma and with KM12 colon was more than 100 µM each time. In addition, the TGI with LOX IMVI melanoma, with UACC-257 melanoma, in the experiment with SN12C renal and in the experiment with BT-549 breast was more than 100 µM throughout.

Regarding `CC(C)(C)N/N=C(/Cc1nc2c3c(ccc2[nH]c1=O)C(=O)c1ccccc1C3=O)C(=O)NC1=C(Cl)C(=O)c2ccccc2C1=O`, the TGI with RXF 393 renal is more than 100 µM; in the experiment on NCI/ADR-RES ovarian, 45.1 µM; in the experiment with 786-0 renal, more than 100 µM; with OVCAR-4 ovarian it was 61.6 µM; in the experiment with SF-295 CNS it was more than 100 µM; in the experiment with DU-145 prostate, more than 100 µM. For the same compound, the TGI in the experiment with PC-3 prostate, in the experiment with SK-OV-3 ovarian, in the experiment on UO-31 renal, with OVCAR-5 ovarian, with SK-MEL-2 melanoma and with K-562 leukemia was more than 100 µM in each case. Also, the TGI in the experiment with M14 melanoma was more than 100 µM; in the experiment with UACC-62 melanoma, more than 100 µM; in the experiment with KM12 colon, 8.83 µM; in the experiment with LOX IMVI melanoma, more than 100 µM; in the experiment on UACC-257 melanoma, more than 100 µM; with SN12C renal, more than 100 µM. The same compound gave a TGI in the experiment on BT-549 breast of more than 100 µM.
